The target in the experiment is human adenosine A2a receptor (Homo sapiens (Human), UniProt P29274). The experiment is described as follows: A2a receptor binding affinity, [3H]-NECA radioligand binding test. To be noted: [3H]-NECA 37 nM; membrane from HEK-293 cells transfected with human adenosine A2a receptor. The method, boiled down: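 Membranes from HEK-293 cells expressing human A2a receptor were incubated with [3H]-NECA (final 37 nM) and compound for 1 h at room temperature in 50 mM Tris, 10 mM MgCl2, 1 mM EDTA, pH 7.4. Bound ligand was filtered on PEI-coated plates and counted by scintillation to derive IC50 (μM).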
human adenosine A2a receptor, sequence (P29274 whole entry): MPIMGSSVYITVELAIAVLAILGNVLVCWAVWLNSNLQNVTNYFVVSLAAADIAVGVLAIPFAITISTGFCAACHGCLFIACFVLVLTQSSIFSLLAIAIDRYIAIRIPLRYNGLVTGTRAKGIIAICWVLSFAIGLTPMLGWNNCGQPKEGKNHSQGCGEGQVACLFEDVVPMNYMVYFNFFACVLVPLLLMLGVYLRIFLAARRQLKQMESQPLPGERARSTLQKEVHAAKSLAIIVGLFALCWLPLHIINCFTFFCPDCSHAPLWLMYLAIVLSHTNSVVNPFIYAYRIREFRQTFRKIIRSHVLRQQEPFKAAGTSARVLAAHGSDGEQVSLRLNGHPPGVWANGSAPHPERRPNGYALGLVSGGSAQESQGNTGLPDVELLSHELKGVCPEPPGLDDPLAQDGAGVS

The IC50 is the point on the concentration scale where inhibition reaches its midpoint. Read a low IC50 as greater potency. The compound `CC(F)(F)CN1CCC(C2CCN(C(=O)[C@@H]3CCCN3c3cc4nc(-c5ccco5)nn4c(N)n3)CC2)CC1` [Example 394, (S)-(1-(5-amino-2-(furan-2-yl)-[1,2,4]triazolo[1,5-c]pyrimidin-7-yl)pyrrolidin-2-yl)(1′-(2,2-difluoropropyl)-[4,4′-bipiperidin]-1-yl)methanone] showed an IC50 of 15 nM.

As to `Nc1nc(N2CCC[C@H]2C(=O)N2CCN(CC(F)F)CC2)nc2nc(-c3ccco3)nn12` [Example 223, (S)-(1-(7-amino-2-(furan-2-yl)-[1,2,4]triazolo[1,5-a][1,3,5]triazin-5-yl)pyrrolidin-2-yl)(4-(2,2-difluoroethyl)piperazin-1-yl)methanone], the IC50 worked out at 7 nM.

With `Nc1nc(N2CCC[C@H]2C(=O)N2CCN(C3COC3)CC2)cc2nc(-c3ccco3)nn12` [Example 404], the IC50 came out at 18 nM.

Consider `CC(C)C(=O)N1CCN(C(=O)[C@H](Cc2ccccc2)Nc2nc(N)n3nc(-c4ccco4)nc3n2)CC1` [Example 5, (S)-2-((7-amino-2-(furan-2-yl)-[1,2,4]triazolo[1,5-a][1,3,5]triazin-5-yl)amino)-1-(4-isobutyrylpiperazin-1-yl)-3-phenylpropan-1-one], for which the IC50 is 1.26 nM.

As for `Nc1nc(N[C@H](C(=O)N2CCN(c3ccc(F)cc3F)CC2)c2ccccc2)nc2nc(-c3ccco3)nn12` [Example 7, (S)-2-((7-amino-2-(furan-2-yl)-[1,2,4]triazolo[1,5-a][1,3,5]triazin-5-yl)amino)-1-(4-(2,4-difluorophenyl)piperazin-1-yl)-2-phenylethan-1-one], the IC50 was found to be 6.72 nM.

`C[C@H](Nc1nc(N)n2nc(-c3ccco3)nc2n1)C(=O)N1CCC(C2CCN(CC(C)(C)F)CC2)CC1` [Example 332, (S)-2-((7-amino-2-(furan-2-yl)-[1,2,4]triazolo[1,5-a][1,3,5]triazin-5-yl)amino)-1-(1′-(2-fluoro-2-methylpropyl)-[4,4′-bipiperidin]-1-yl)propan-1-one] yielded an IC50 of 5 nM.

`CCCCN1CCN(C(=O)[C@@H](Nc2nc(N)n3nc(-c4ccco4)nc3n2)C(C)C)CC1` [Example 143, (S)-2-((7-amino-2-(furan-2-yl)-[1,2,4]triazolo[1,5-a][1,3,5]triazin-5-yl)amino)-1-(4-butylpiperazin-1-yl)-3-methylbutan-1-one]: the half-maximal inhibitory concentration (IC50) turned out to be 20 nM.

`CC(F)(F)CN1CCN(C(=O)[C@@H]2CCCN2c2nc(N)n3nc(-c4ccco4)nc3n2)C2(CC2)C1` [Example 343, (S)-(1-(7-amino-2-(furan-2-yl)-[1,2,4]triazolo[1,5-a][1,3,5]triazin-5-yl)pyrrolidin-2-yl)(7-(2,2-difluoropropyl)-4,7-diazaspiro[2.5]octan-4-yl)methanone] gave an IC50 of 9 nM.

In the case of `COCCN1CCN(C(=O)[C@H](C)Nc2nc(N)n3nc(-c4ccco4)nc3n2)CC1` [Example 118, (S)-2-((7-amino-2-(furan-2-yl)-[1,2,4]triazolo[1,5-a][1,3,5]triazin-5-yl)amino)-1-(4-(2-methoxyethyl)piperazin-1-yl)propan-1-one], the IC50 stood at 21 nM.

As for `Nc1nc(N2CC[C@H]2C(=O)N2CCN(c3ccc(F)cc3F)CC2)nc2nc(-c3ccco3)nn12` [Example 112, (S)-(1-(7-amino-2-(furan-2-yl)-[1,2,4]triazolo[1,5-a][1,3,5]triazin-5-yl)azetidin-2-yl)(4-(2,4-difluorophenyl)piperazin-1-yl)methanone], the IC50 worked out at 9 nM.

`CC(F)(F)CN1CCN(C(=O)[C@@H]2CCCN2c2nc(N)c3nc(-c4ccco4)sc3n2)CC1` [Example 259, (S)-(1-(7-amino-2-(furan-2-yl)thiazolo[5,4-d]pyrimidin-5-yl)pyrrolidin-2-yl)(4-(2,2-difluoropropyl)piperazin-1-yl)methanone] gave an IC50 of 3 nM.

As for `Cc1ccc(-c2nc3nc(N4CCC[C@H]4C(=O)N4CCN(CC(F)(F)C(F)F)CC4)nc(N)n3n2)o1` [Example 298, (S)-(1-(7-amino-2-(5-methylfuran-2-yl)-[1,2,4]triazolo[1,5-a][1,3,5]triazin-5-yl)pyrrolidin-2-yl)(4-(2,2,3,3-tetrafluoropropyl)piperazin-1-yl) methanone], the IC50 was 3 nM.

In turn, `CCCCN1CCN(C(=O)[C@@H](Nc2nc(N)n3nc(-c4ccco4)nc3n2)C2CC2)CC1` [Example 176, (S)-2-((7-amino-2-(furan-2-yl)-[1,2,4]triazolo[1,5-a][1,3,5]triazin-5-yl)amino)-1-(4-butylpiperazin-1-yl)-2-cyclopropylethan-1-one] displayed an IC50 of 16 nM.

`Nc1nc(N2CCC[C@H]2C(=O)N2CCC(C3CCN(CCCC(F)(F)F)CC3)CC2)nc2nc(-c3ccco3)nn12` [Example 291, (S)-(1-(7-amino-2-(furan-2-yl)-[1,2,4]triazolo[1,5-a][1,3,5]triazin-5-yl)pyrrolidin-2-yl)(1′-(4,4,4-trifluorobutyl)-[4,4′-bipiperidin]-1-yl)methanone] showed an IC50 of 5 nM.

`COC[C@H](Nc1nc(N)n2nc(-c3ccco3)nc2n1)C(=O)N1CCN(CC(F)F)CC1` [Example 396, (S)-2-((7-amino-2-(furan-2-yl)-[1,2,4]triazolo[1,5-a][1,3,5]triazin-5-yl)amino)-1-(4-(2,2-difluoroethyl)piperazin-1-yl)-3-methoxypropan-1-one] displayed an IC50 of 29 nM.

In turn, `CC(C)(F)CN1CCN(C(=O)[C@@H](Nc2nc(N)n3nc(-c4ccco4)nc3n2)C2CC2)CC1` [Example 339, (S)-2-((7-amino-2-(furan-2-yl)-[1,2,4]triazolo[1,5-a][1,3,5]triazin-5-yl)amino)-2-cyclopropyl-1-(4-(2-fluoro-2-methylpropyl)piperazin-1-yl)ethan-1-one] gave an IC50 of 18 nM.

With `Nc1nc(N2CCC[C@H]2C(=O)N2CCN(CCN3CCOCC3)CC2)nc2nc(-c3ccco3)nn12` [Example 53, 4-(2-(4-((7-amino-2-(furan-2-yl)-[1,2,4]triazolo[1,5-a][1,3,5]triazine-5-yl)-L-prolyl)piperazin-1-yl)ethyl)morpholine], the IC50 turned out to be 8 nM.

`Nc1nc(N2CCC[C@H]2C(=O)N2CCN(CC(F)F)CC23CC3)nc2nc(-c3ccco3)nn12` [Example 341, (S)-(1-(7-amino-2-(furan-2-yl)-[1,2,4]triazolo[1,5-a][1,3,5]triazin-5-yl)pyrrolidin-2-yl)(7-(2,2-difluoroethyl)-4,7-diazaspiro[2.5]octan-4-yl)methanone]: the IC50 turned out to be 28 nM.

As to `C[C@H](Nc1cc2nc(-c3ccco3)nn2c(N)n1)C(=O)N1CCN(CC(C)(C)F)CC1` [Example 375, (S)-2-((5-amino-2-(furan-2-yl)-[1,2,4]triazolo[1,5-c]pyrimidin-7-yl)amino)-1-(4-(2-fluoro-2-methylpropyl)piperazin-1-yl)propan-1-one], the IC50 was found to be 8 nM.

Regarding `Nc1nc(N2CCC[C@H]2C(=O)N2CC3CCC(C2)N3CC(F)(F)F)nc2nc(-c3ccco3)nn12` [Example 204, ((S)-1-(7-amino-2-(furan-2-yl)-[1,2,4]triazolo[1,5-a][1,3,5]triazin-5-yl)pyrrolidin-2-yl)(8-(2,2,2-trifluoroethyl)-3,8-diazabicyclo[3.2.1]octan-3-yl)methanone], the IC50 was 13 nM.

With `CC(F)(F)CN1CC2(CCN(C(=O)[C@@H]3CCCN3c3nc(N)n4nc(-c5ccco5)nc4n3)CC2)C1` [Example 364, (S)-(1-(7-amino-2-(furan-2-yl)-[1,2,4]triazolo[1,5-a][1,3,5]triazin-5-yl)pyrrolidin-2-yl)(2-(2,2-difluoropropyl)-2,7-diazaspiro[3.5]nonan-7-yl)methanone], the 50% inhibitory concentration (IC50) is 12 nM.

Consider `Nc1nc(N2CCC[C@@H]2C(=O)N2CCN(CC(F)(F)F)CC2)nc2nc(-c3ccco3)nn12` [Example 94, (R)-(1-(7-amino-2-(furan-2-yl)-[1,2,4]triazolo[1,5-a][1,3,5]triazin-5-yl)pyrrolidin-2-yl)(4-(2,2,2-trifluoroethyl)piperazin-1-yl)methanone], for which the IC50 was found to be 4390 nM.

In turn, `Nc1nc(N2CCC[C@H]2C(=O)N2CCN(c3ncccn3)CC2)nc2nc(-c3ccco3)nn12` [Example 127, (S)-(1-(7-amino-2-(furan-2-yl)-[1,2,4]triazolo[1,5-a][1,3,5]triazin-5-yl)pyrrolidin-2-yl)(4-(pyrimidin-2-yl)piperazin-1-yl)methanone] came in with an IC50 of 3 nM.

For `Nc1nc(N2CCC[C@H]2C(=O)N2CCN(Cc3ccc(F)cc3F)CC2)nc2nc(-c3ccco3)nn12` [Example 16, (S)-(1-(7-amino-2-(furan-2-yl)-[1,2,4]triazolo[1,5-a][1,3,5]triazin-5-yl)pyrrolidin-2-yl)(4-(2,4-difluorobenzyl)piperazin-1-yl)methanone], the IC50 came to 1.95 nM.

For `CC(C)(F)CN1CCN(C(=O)[C@@H]2CCN2c2nc(N)n3nc(-c4ccco4)nc3n2)CC1` [Example 108, (S)-(1-(7-amino-2-(furan-2-yl)-[1,2,4]triazolo[1,5-a][1,3,5]triazin-5-yl)azetidin-2-yl)(4-(2-fluoro-2-methylpropyl)piperazin-1-yl)methanone], the IC50 turned out to be 9 nM.

In turn, `Nc1nc(N2CC[C@H]2C(=O)N2CCC(C3CCN(CC(F)(F)C(F)F)CC3)CC2)nc2nc(-c3ccco3)nn12` [Example 325, (S)-(1-(7-amino-2-(furan-2-yl)-[1,2,4]triazolo[1,5-a][1,3,5]triazin-5-yl)azetidin-2-yl)(1′-(2,2,3,3-tetrafluoropropyl)-[4,4′-bipiperidin]-1-yl)methanone] had a half-inhibitory concentration (IC50) of 8 nM.

Consider `C[C@H](Nc1nc(N)n2nc(-c3ccco3)nc2n1)C(=O)N1CC2(CCN(Cc3ccc(F)cc3F)CC2)C1` [Example 30, (S)-2-((7-amino-2-(furan-2-yl)-[1,2,4]triazolo[1,5-a][1,3,5]triazin-5-yl)amino)-1-(7-(2,4-difluorobenzyl)-2,7-diazaspiro[3.5]nonan-2-yl)propan-1-one], for which the IC50 is 1 nM.

The values above are taken from patent publication US20240217978A1 (CHONG KUN DANG PHARMACEUTICAL CORP., priority 2021, published 2024).
